ChEMBL document CHEMBL3832047, “DailyMed|setid=077bf6ff-afb8-4cb7-9faa-fbb6fd9f037f | YAZ - drospirenone and ethinyl estradiol|Physicians Total Care, Inc”

What was measured:
[1] = (§1) Evaluation pharmacokinetic parameters for Drosporine following multiple co-administration of Drosporine tablets and 0.02 mg ethinyl estradiol to 23 healthy females.; type: ADME, organism-based; set-up: dose 3 mg, route oral; settings: human, in vivo, dosed compound id 30, dosed compound name DROSPIRENONE, gender female, regimen every 24h, study dosing duration 21 days, tissue Serum
[2] = tested on: Homo sapiens; experiment: as §1; type: ADME, organism-based; set-up: dose 3 mg, route oral; settings: in vivo, po, dosed compound id 30, dosed compound name DROSPIRENONE, gender female, regimen every 24h, study dosing duration 21 days, tissue Serum

Cmax ([1]; po, sampling time1 1 day): 38.4 ng/mL
Tmax ([1]; dose 3 mg, route oral, sampling time1 1 day): 1 to 2 h
half-life ([1]; dose 3 mg, route oral, sampling time1 21 day): 30.8 h
AUC(0-24) ([2]; sampling time1 1 day): 268 ng·h/mL
AUC(0-24) ([2]; sampling time1 21 day): 763 ng·h/mL
Cmax ([2]; sampling time1 21 day): 70.3 ng/mL
SMILES: C[C@]12CCC(=O)C=C1[C@@H]1C[C@@H]1[C@H]1[C@@H]3[C@@H]4C[C@@H]4[C@@]4(CCC(=O)O4)[C@@]3(C)CC[C@@H]12 [DROSPIRENONE]
